Eight compounds from ChEMBL document CHEMBL1201862, “PubChem BioAssay data set” (2004) can be followed below.

The target in test [1] is Potassium channel subfamily K member 9 (Homo sapiens, UniProt Q9NPC2). As to the kind of experiment: TASK3 (KCNK9) channel inhibitors, thallium flux, SAR follow-up, selectivity assay for TASK1 inhibitor project, cell-based, FluxOR thallium flux, concentration-response (AID 652211).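 Also: potency is for inhibitors of the channel.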 Type of test: functional.
Test [2] deals with Potassium channel subfamily K member 3 (Rattus norvegicus, UniProt O54912). As to the kind of experiment: SAR analysis for the identification of selective inhibitors of the two-pore domain potassium channel TASK1(KCNK3):Automated Electrophysiology. Type of test: functional.
Test [3] in a line: cells. Type of test: functional, cell-based.
The target of test [4] is T1, Trace amine-associated receptor 1 (Homo sapiens, UniProt Q96RJ0). As to the kind of experiment: Counterscreen for agonists of the human trace amine associated receptor 1 (hTAAR1): Fluorescence-based cell-based high throughput dose response assay to identify hTAAR1 agonist that also desensitize TAAR1 receptor response. Type of test: functional. (In general: Counterscreens check selectivity or assay interference.)

The nature of test [5]: cells. It counts as functional, cell-based. The source holds these as a separate data set.
For test [6], the target named is T1, Trace amine-associated receptor 1. As to the kind of experiment: Fluorescence-based cell-based high throughput dose response assay to identify agonists of the human trace amine associated receptor 1 (TAAR1). It counts as functional.
Test [7] can be described thus: inhibitors of fibronectin matrix deposition, dose response, AH1F cells, Alexa488-FN fluorescence, cherry-picks (AID 1035475). It counts as functional, cell-based.
Test [8] can be described thus: A549 cell cytotoxicity, dose response, cytotoxicity control, cherry-picks, 26 µM top dose (AID 1053119). Type of test: functional, cell-based.
The target in test [9] is Beta-lactamase (Salmonella choleraesuis (strain SC-B67), UniProt Q5J463). As to the kind of experiment: Epi-absorbance-based counterscreen for selective VIM-2 inhibitors: dose response biochemical high throughput screening assay to identify inhibitors of TEM-1 serine-beta-lactamase.
Test [10] concerns the target T2, Beta-lactamase (Pseudomonas aeruginosa, UniProt Q79MP6). As to the kind of experiment: IMP-1 metallo-beta-lactamase inhibitors, dose response, selectivity assay for VIM-2 inhibitor project, biochemical, epi-absorbance (AID 1920).
Test [11] has as its target T2, Beta-lactamase. As to the kind of experiment: […] counterscreen for selective VIM-2 inhibitors: dose response biochemical high throughput screening assay to identify inhibitors of IMP-1 metallo-beta-lactamase.
Test [12] is described as follows: Luminescence-based cell-based high throughput dose response assay to identify activators of the DAF-12 from the parasite S. stercoralis (ssDAF-12). It counts as functional.
The target of test [13] is T3, Nuclear receptor subfamily 0 group B member 1 (Homo sapiens, UniProt P51843).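 Also: HEK293T cells transfected with SF-1 and DAX-1 plus StAR promoter luciferase reporter.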
T3 sequence (P51843 whole entry): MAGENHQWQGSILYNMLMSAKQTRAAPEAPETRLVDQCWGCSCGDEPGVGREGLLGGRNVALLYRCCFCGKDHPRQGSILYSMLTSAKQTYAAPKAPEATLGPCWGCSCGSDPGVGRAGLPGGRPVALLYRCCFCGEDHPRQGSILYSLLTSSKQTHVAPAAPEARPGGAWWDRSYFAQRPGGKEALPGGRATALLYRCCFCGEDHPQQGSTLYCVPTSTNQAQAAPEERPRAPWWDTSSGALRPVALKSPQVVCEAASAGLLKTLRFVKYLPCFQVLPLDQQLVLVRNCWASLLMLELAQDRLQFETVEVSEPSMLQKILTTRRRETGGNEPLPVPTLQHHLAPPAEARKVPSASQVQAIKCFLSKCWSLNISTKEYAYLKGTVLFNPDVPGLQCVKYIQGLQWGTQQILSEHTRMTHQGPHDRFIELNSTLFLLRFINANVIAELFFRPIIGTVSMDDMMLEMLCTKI
Type of test: functional, cell-based.

Test [14] can be described thus: cells. It counts as functional, cell-based. This is another data set of the same source.
Test [15] can be described thus: HEK293T cytotoxicity, dose response, cytotoxicity control for miR-122 modulator project, cell-based, inhibitor set, cherry-pick, set 2 (AID 720697). Type of test: functional.
Test [16] is described as follows: cytotoxicity in HPDE-C7 cells, cell-based, fluorescence, HTS (AID 430). It counts as functional. The settings on record: Homo sapiens.
Test [17] in a line: inhibitors of PGC1a acetylation in cells, dose response, cell-based, cherry-picked samples (AID 720514).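 Also: potency may reflect raised or lowered acetylation signal.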 It counts as functional.
In test [18] the target is Sphingosine 1-phosphate receptor 2 (Homo sapiens, UniProt O95136). As to the kind of experiment: Dose Response Cell Based Assay for Antagonists of the S1P2 Receptor. [Related pubchem assays: 856, 736 ]. Type of test: functional.
A short description of test [19]: miR-122 activators in hepatoma reporter cells, dose response, cell-based, Huh7 psiCHECK-miR122, Renilla luciferase, cherry-picked (AID 651956).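 Also: huh7 hepatoma cells stably carrying a psiCHECK-2 miR-122 sensor plasmid; renilla luciferase signal reporting endogenous miR-122 activity after 48 h compound exposure.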 It counts as functional.
Test [20] addresses G2/mitotic-specific cyclin-B1 (Homo sapiens, UniProt P14635). As to the kind of experiment: Counterscreen assay for inhibitors of Wee1 degradation: dose response cell-based assay to identify inhibitors of cyclin B degradation. [Related pubchem assays: 1410, 1321 ]. Type of test: functional.
Test [21] concerns the target T4, Heat shock factor protein 1 (Mus musculus, UniProt P38532).
T4 sequence (P38532 whole entry): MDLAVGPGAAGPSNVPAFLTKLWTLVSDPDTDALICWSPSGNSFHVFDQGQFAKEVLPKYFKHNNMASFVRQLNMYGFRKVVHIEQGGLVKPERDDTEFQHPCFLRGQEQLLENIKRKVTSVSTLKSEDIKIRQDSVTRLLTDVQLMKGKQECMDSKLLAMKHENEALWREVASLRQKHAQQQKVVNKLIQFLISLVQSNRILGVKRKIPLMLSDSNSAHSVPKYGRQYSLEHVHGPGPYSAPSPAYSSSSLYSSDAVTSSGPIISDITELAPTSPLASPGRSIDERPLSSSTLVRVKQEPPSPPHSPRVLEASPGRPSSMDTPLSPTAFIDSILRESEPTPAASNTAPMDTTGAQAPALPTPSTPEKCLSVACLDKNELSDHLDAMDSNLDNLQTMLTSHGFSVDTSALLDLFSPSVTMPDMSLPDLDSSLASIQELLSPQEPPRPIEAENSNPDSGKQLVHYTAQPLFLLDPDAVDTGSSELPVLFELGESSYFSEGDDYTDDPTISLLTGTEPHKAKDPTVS
As to the kind of experiment: inhibition of MG132-induced HSE-luciferase signal, confirmation, cell-based, NIH3T3, luminescence, dose retest (AID 2382).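 Also: NIH3T3 fibroblasts with HSF1-driven luciferase reporter stressed by proteasome inhibitor MG132; luminescence from HSF1-driven luciferase expression after 8 hours of MG132 stress.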 It counts as functional.

In test [22] the test system is INS1. As to the kind of experiment: beta cell apoptosis inhibitors, cytokine rescue, dose response, luminescence, retest (AID 449756).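 Also: cell death triggered by IL-1 beta plus TNF-alpha plus IFN-gamma mixture; protective hits raise ATP signal compared with cytokine alone wells.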 It counts as functional, cell-based. As to conditions: Rattus norvegicus.
Test [23] is described as follows: cells.
For test [24], the target named is Wee1-like protein kinase (Homo sapiens, UniProt P30291). As to the kind of experiment: Dose Response Cell-based Assay for Inhibitors of Wee1 Degradation. [Related pubchem assays: 1410, 1321 ]. Type of test: functional.
A short description of test [25]: cytotoxicity in HEK-293T cells, dose response, cytotoxicity control for TCR NF-kB inhibitor project, luminescence, T-cell screen hits (AID 489026).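 Also: cells exposed to compound about 14 hours before the viability readout.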 Type of test: functional, cell-based.
A short description of test [26]: HEK293T cytotoxicity, dose response, cytotoxicity control for miR-122 modulator project, cell-based, activator set, cherry-pick (AID 720690).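 Also: HEK293T human cells scored for general mammalian cytotoxicity.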 Type of test: functional.
Test [27] deals with Major prion protein (Homo sapiens, UniProt P04156). Type of test: functional, cell-based.
Test [28] in a line: cytotoxicity in KRAS-transformed pancreatic duct cells, primary screen, cell-based, fluorescence, HTS (AID 431).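 Also: cell line used: HPDE-C7K.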 It counts as functional. The settings on record: Homo sapiens.
Test [29] addresses T5, Scavenger receptor class B member 1 (Mus musculus, UniProt Q61009). As to the kind of experiment: inhibitors of SR-BI dependent HDL uptake, dose response, ldlA[mSR-BI] CHO cells, fluorescence plate reader, dry powder, set 9 (AID 623880). It counts as functional, cell-based.
Test [30] deals with T5, Scavenger receptor class B member 1. As to the kind of experiment: inhibitors of SR-BI-mediated HDL uptake, dose response, cell-based, ldlA[mSR-BI] CHO, DiI fluorescence, dry powder, set 10 (AID 624029). It counts as functional.
The target in test [31] is Beta-galactosidase (Escherichia coli, UniProt Q8VNN2). As to the kind of experiment: Dose response counterscreen for EBI2 assay utilizing the enzyme, b-galactosidase. Type of test: functional.
Test [32] can be described thus: HEp-2 cell cytotoxicity, dose response, cytotoxicity control for RSV inhibitor project, HTS (AID 2410). It counts as functional. The settings on record: human respiratory syncytial virus.
The nature of test [33]: cells. This is another data set of the same source.

Active and inactive are the calls of the source.

As a reminder, the IC50 is the concentration at which inhibition is half-maximal. On to `COc1ccccc1C(=O)Nc1cccc(NC(=O)c2ccccc2OC)c1`, for which the IC50 in test [1] is 3.62 µM (active); in [2] it was 30 nM (active).

Broadly, the EC50 is the concentration giving half of the maximal effect. Regarding `CN1CCNC(=O)C1CC(=O)NCCc1ccccc1F` (stereo not drawn), the EC50 in [3] was > 29.9 µM (inactive); in [6], 2.49 µM (active). Besides, the IC50 in test [4] was 6.6 µM (active); in test [5] it was > 29.9 µM (inactive).

The term AC50 denotes the midpoint of the concentration-response curve, whichever way the signal moves. As to `COc1ccc(Cl)cc1NC(=O)CSc1nc(Nc2ccccc2)nc(N2CCOCC2)n1`, the AC50 in test [7] was 64.2 µM (active); in test [8], > 52 µM (inactive).

Consider `Cc1cccc(-n2c(C)nnc2S)c1C`, for which the IC50 in [9], in [10] and in [11] was > 59.6 µM (inactive) throughout.

For `C(=Cc1c[nH]c2ccccc12)c1ccc2ccccc2n1`, the IC50 is > 67.5 µM (inactive) in [12], 10.3 µM (inactive) in [13] and > 67.5 µM (inactive) in test [14].

On to `O=S(=O)(C/C(=C/CO)S(=O)(=O)c1ccccc1)c1ccccc1`, for which the AC50 was 4.09 µM (active) in [15]; 3.28 µM (active) in [17]; 6.77 µM (active) in test [19]; 9.58 µM (active) in test [22]; 4.73 µM (active) in test [26]. In addition, the concentration giving a half-maximal response (EC50) in test [16] is 1.92 µM (active); in [20], > 5.53 µM (active); in test [21], 4.31 µM (active); in test [24], > 5.53 µM (active); in [28] it was 2.5 µM (active). In addition, the IC50 in test [18] is 3.07 µM (active); in test [23], 42.9 µM (inactive); in test [25], 67.1 µM (inactive); in test [27], 9.14 µM (active).

In the case of `C[C@@H]1CN([C@H](C)CO)C(=O)c2cc(NC(=O)C3CCCCC3)ccc2O[C@H]1CN(C)S(=O)(=O)c1ccc(Cl)cc1`, the AC50 is 68.6 nM (active) in test [29] and 61.6 nM (active) in [30].

The CC50 is the concentration at which the toxic effect on the cells reaches its halfway point. In the case of `COc1ccc(-c2cc3nc(-c4ccccc4)cc(N4CCC(O)CC4)n3n2)cc1`, the IC50 was > 80 µM (inactive) in test [31] and 34.9 µM (active) in [33]. Besides, the CC50 in test [32] was 17 µM (active).
